In publication PMC6541351, “Towards the preparation of synthetic outer membrane vesicle models with micromolar affinity to wheat germ agglutinin using a dialkyl thioglycoside” (Beilstein Journal of Organic Chemistry, 2019):

Molecular target: T1, wheat germ agglutinin (WGA)
T1 construct: horseradish peroxidase-labelled WGA (WGA-HRP); homodimer
Test: competitive enzyme-linked lectin assay (ELLA), WGA-HRP vs PAA-GlcNAc
Type: binding, Triticum aestivum

Compound `CC(=O)N[C@H]1C(O)O[C@H](CO)[C@@H](O)[C@@H]1O` (stereo partly shown) [GlcNAc] has an IC50 of 35 mM.
